Reference: the RepoRT retention time repository (doi:10.1016/j.aca.2011.12.065)
Counter-ions that a name gives are not always drawn.

What was measured:
[1] = RP, Waters ACQUITY UPLC BEH C18, 100 × 2.1 mm, 1.7 µm; A: water + 0.1% formic acid, pH 3; B: 80% acetonitrile + 20% acetone + 0.1% formic acid, pH 3; gradient (min/%B) 0/0 6/100; details: stereoisomer not certain
[2] = RP, Waters ACQUITY UPLC HSS T3, 100 × 2.1 mm, 1.8 µm; A: water + 0.1% formic acid, pH 3; B: 30% methanol + 70% acetonitrile + 0.1% formic acid, pH 3; gradient (min/%B) 0.0/5 1.0/8 2.0/15 3.0/40 4.0/70 4.5/100 5.0/100 6.4/100 6.6/5.0 6.8/5.0 7.0/5.0; details: stereoisomer not certain

SMILES | LC retention time [1] [min] | LC retention time [2] [min]
COc1cc2c(CCNC(C)=O)c[nH]c2cc1O [6-hydroxymelatonin] | 1.81 | 3.4
NC(CCCCn1c(C=O)ccc1CO)C(=O)O (stereo not given) [pyrraline] | 1.43 | 2.31
NC(CCCC(N)C(=O)O)C(=O)O (stereo not given) [2,6-diaminopimelic acid] | 0.543 | 0.44
CC(C(=O)O)C(=O)O [Methylmalonic acid] | 1.27 | 0.539
CC(=O)NC(CSC(=S)NCCCCS(C)=O)C(=O)O (stereo not given) [sulforaphane-n-acetylcysteine] |  | 3.24
CC(C)C(O)C(=O)O (stereo not given) [2-hydroxyisovaleric acid] |  | 2.54
CCCCCCCCC=CCCCCCCCC(N)=O [oleamide] |  | 4.81
Cc1cc(C(=O)O)ccc1O [4-hydroxy-3-methylbenzoic acid] |  | 3.46
OCC(O)c1ccc(O)c(O)c1 (stereo not given) [3,4-dihydroxyphenylglycol] |  | 0.858
O=C(O)Cc1c[nH]c2ccccc12 [3-indoleacetic acid] |  | 3.63
NC(CC(=O)O)C(=O)NC(Cc1ccccc1)C(=O)O (stereo not given) [asp-phe] |  | 2.67
O=c1c(O)c(-c2ccc(O)c(O)c2)oc2cc(O)cc(O)c12 [quercetin] |  | 3.74
Cn1c(=O)[nH]c2[nH]c(=O)[nH]c(=O)c21 [7-methyluric acid] |  | 1.08
NCCCC(=O)O [gamma-aminobutyric acid] |  | 0.491
O=C(O)c1ccc[nH]1 [pyrrole-2-carboxylic acid] |  | 2.61
Cn1cnc2[nH]c(=O)[nH]c(=O)c21 [7-methylxanthine] |  | 1.25
C[N+](C)(C)[O-] [TMAO] |  | 0.468
CNCC(O)c1ccc(O)c(O)c1 (stereo not given) [epinephrine] |  | 0.564
O=c1cc(-c2ccc(O)c(O)c2)oc2cc(O)cc(O)c12 [luteolin] |  | 3.75
O=C(O)C(O)c1ccc(O)c(O)c1 (stereo not given) [dihydroxymandelic acid] |  | 0.829
Cn1c(=O)[nH]c(=O)c2c1[nH]c(=O)n2C [3,7-dimethyluric acid] |  | 1.55
CCCc1oc(CCC(=O)O)c(C(=O)O)c1C [cmpf] |  | 4.08
C[N+]1(C)CCCC1C(=O)[O-] (stereo not given) [proline betaine] |  | 0.543

SMILES | LC retention time [1] [min] | LC retention time [2] [min]
CCC(C)(O)C(=O)O (stereo not given) [2-hydroxy-2-methylbutyric acid] |  | 2.23
CC12C=Cc3occc3C1CCC13CC(CCC12)C(O)(CO)C3 (stereo not given) [kahweol] |  | 3.81
O=C(O)CNC(=O)Cc1ccccc1 [phenylacetylamino-acetic acid] |  | 3.38
C=CCS(=O)CC(N)C(=O)O (stereo not given) [aliin] |  | 0.638
O=C(O)C1OC(Oc2ccccc2O)C(O)C(O)C1O (stereo not given) [Pyrocatechol glucuronide] |  | 2.81
COc1ccc(O)c(C(=O)O)c1 [2-hydroxy-5-methoxylbenzoic acid] |  | 3.69
OCC(O)C(O)C(O)C(O)CO (stereo not drawn) [d(-)-mannitol] |  | 0.483
CCC=CCC=CCC=CCC=CCC=CCC=CCCC(=O)OC(COC(=O)CCCCCCCCCCCCCCCCC)COP(=O)([O-])OCC[N+](C)(C)C (stereo not given) [pc(18:0/22:6)] |  | 5.51
CC(C)(N)C(=O)O [2-aminoisobutyric acid] |  | 0.524
CS(=O)CCCN=C=S (stereo not given) [iberin] |  | 3.24
CCCCCCCC(=O)OC1OC(C(=O)O)C(O)C(O)C1O (stereo not given) [octanoic acid glucuronide] |  | 3.92
O=C(O)C1CCCCN1 (stereo not given) [pipecolinic acid] |  | 0.62
CC(C)CC(=O)NCC(=O)O [isovalerylglycine] |  | 2.74
COc1cc(C(=O)O)cc(OC)c1O [syringic acid] | 1.79 | 
CC(C)C1NC(=O)C(Cc2ccccc2)NC1=O (stereo not given) [Cyclic(phe-val)] | 2.39 | 
CCC(=O)OC(CC(=O)[O-])C[N+](C)(C)C (stereo not given) [propionylcarnitine chloride] | 1.35 | 
C[NH+]1CC(O)CC1C(=O)[O-] (stereo not given) [n-methyl-4-hydroxyproline] |  | 0.498
CC(C)C(O)C(=O)O (stereo not given) [2-Hydroxy-3-methylbutyric acid] | 1.69 | 
CCC(C)C(N)C(=O)NC(CC(=O)O)C(=O)O (stereo not given) [ile-asp] | 0.6 | 
C[N+](C)(C)CC(O)CC(=O)[O-] (stereo not drawn) [l-carnitine inner salt] |  | 0.457
CCC(C)C1NC(=O)C(CCC(=O)O)NC1=O (stereo not given) [Cyclic(glu-ile)] | 1.71 | 
O=C(O)CCC1NC(=O)C(CC(=O)O)NC1=O (stereo not given) [Cyclic(asp-glu)] | 0.884 | 
CC(CCC(=O)NCCS(=O)(=O)O)C1CCC2C3CCC4CC(O)CCC4(C)C3CCC12C (stereo not given) [taurolithocholic acid] | 3.84 | 

SMILES | LC retention time [1] [min] | LC retention time [2] [min]
CCCCCCCCCCCCCCCCOCC(COP(=O)([O-])OCC[N+](C)(C)C)OC(=O)CCCCCCCC(=O)O (stereo not given) [Azelaoyl PAF 10 ug/ml] | 4.86 | 
Cn1cncc1CC(NC(=O)CCN)C(=O)O (stereo not given) [anserine] |  | 0.441
CC(C)C(=O)C(=O)O [alpha-ketoisovaleric acid] |  | 1.92
OCC(O)c1ccc(O)c(O)c1 (stereo not given) [3,4-dihydroxyphenyl glycol] | 1.02 | 
CC12CCC3C(CCC4CC(=O)CCC43C)C1CCC2O (stereo not given) |  | 4.47
CC(C)CC(NC(=O)C1CCC(=O)N1)C(=O)O (stereo not given) [pglu-leu] | 1.89 | 
CC(=O)Nc1c(N)[nH]c(=O)n(C)c1=O [aamu] |  | 0.666
CC(O)CC(=O)O (stereo not given) [3-hydroxybutyric acid] |  | 3.44
O=C(O)CNC(=O)C=Cc1c[nH]c2ccccc12 [indole-3-acryloylglycine] |  | 3.56
Cc1ccccc1C(=O)NCC(=O)O [2-methylhippuric acid] |  | 3.41
CS(=O)CCC(N)C(=O)O (stereo not drawn) [dl methine sulfoxide] | 0.596 | 
CCCCCC=CCC=CCCCCCCCC(=O)OCC(O)COP(=O)([O-])OCC[N+](C)(C)C (stereo not given) [LPC(18:2)_enz] | 4.25 | 
CC(O)C(NC(=O)C1CCCN1)C(=O)O (stereo not given) [pro-thr] | 0.6 | 
CC(C)CC(NC(=O)C(N)CC(=O)O)C(=O)O (stereo not given) [asp-leu] | 0.6 | 
NCCC(=O)NC(Cc1cnc[nH]1)C(=O)O (stereo not given) [carnosine] |  | 0.437
CCC(C)C1NC(=O)C(C)NC1=O (stereo not given) [Cyclic(ala-ile)] | 1.8 | 
O=C(O)C1OC(Oc2ccc(O)cc2)C(O)C(O)C1O (stereo not given) [hydroquinone-glucuronide] |  | 0.91
c1coc(CNc2ncnc3nc[nH]c23)c1 [kinetin] |  | 3.03
CCCCCCCCCCCCCCCC(=O)OCC(COP(=O)([O-])OCC[N+](C)(C)C)OC(=O)CCCCCCCC(=O)O (stereo not given) [PAZ-PC] | 4.66 | 
CCCCCCCCCCCCCCCC(=O)OCC(COP(=O)([O-])OCC[N+](C)(C)C)OC(=O)CCCC=O (stereo not given) [POV-PC 10 ug/ml] | 4.66 | 
CC(C)C(NC(=O)C1CCC(=O)N1)C(=O)O (stereo not given) [pglu-val] | 1.57 | 
CCC(C)C1NC(=O)C(C(C)C)NC1=O (stereo not given) [Cyclic(ile-val)] | 2.31 | 
COc1ccc(O)c(C(=O)O)c1 [5-methoxysalicylic acid] | 2.41 | 

SMILES | LC retention time [1] [min] | LC retention time [2] [min]
CC(C)CC(NC(=O)CC(N)C(=O)O)C(=O)O (stereo not drawn) [beta-asp-leu] | 0.6 | 
CC12CCC(=O)C=C1CCC1C2CCC2(C)C(O)CCC12 (stereo not given) [testosterone] |  | 4.32
NCCc1ccc(O)c(O)c1 [dopamine] |  | 0.712
O=C(Cc1c[nH]c2ccccc12)OC1OC(C(=O)O)C(O)C(O)C1O (stereo not given) [indole-3-acetic acid-glucuronide] |  | 3.46
CC(CCC(=O)NCC(=O)O)C1CCC2C3C(O)CC4CC(OC5OC(C(=O)O)C(O)C(O)C5O)CCC4(C)C3CCC12C (stereo not given) [glycochenodeoxycholic acid 3-glucuronide] |  | 4.34
CC(C)C1NC(=O)C2CCCN2C1=O (stereo not given) [cyclo-(pro-val)] |  | 3.1
CC(C)C(NC(=O)C(N)Cc1ccccc1)C(=O)O (stereo not given) [Phe-Val] | 1.63 | 
C=C(C)C1CC=C(C(=O)O)CC1 (stereo not given) [perillic acid] |  | 3.81
O=C(O)/C=C/c1cccc(O)c1 [trans-3-hydroxycinnamic acid] |  | 3.53
CC(C)(O)C(=O)O [alpha-hydroxyisobutyric acid] | 1.4 | 
CC(C)C(N)C(=O)NC(CCC(=O)O)C(=O)O (stereo not given) [val-glu] | 0.906 | 
CCC(C)C(=O)C(=O)O (stereo not given) [2-Oxo-3-methylpentanoic acid] | 1.86 | 
NC(=O)NC(NC(N)=O)C(=O)O [allantoic acid] |  | 0.491
O=C(O)Cc1c[nH]c2ccc(O)cc12 [5-hydroxyindole-acetic acid] |  | 2.92
CCC=CCC=CCC=CCC=CCC=CCCCC(=O)OCC(COP(=O)([O-])OCC[N+](C)(C)C)OC(=O)CCCC=CCC=CCC=CCC=CCC=CCC (stereo not given) [PC(20:5/20:5)] | 5.62 | 
O=C1OC(C(O)CO)C(O)=C1O (stereo not given) [Ascorbic acid] |  | 0.561
CCC(C)C(NC(=O)CC(N)C(=O)O)C(=O)O (stereo not drawn) [beta-asp-ile] | 0.6 | 
CC(C)C(N)C(=O)O (stereo not given) [valine] |  | 0.546
CC(C)CC1NC(=O)C(CC(=O)O)NC1=O (stereo not given) [Cyclic(asp-leu)] | 1.68 | 
O=C(OC1OC(C(=O)O)C(O)C(O)C1O)c1c[nH]c2ccccc12 (stereo not given) [indole-3-carboxylic acid glucuronide] |  | 3.42
O=C(O)CNC(=O)c1cccnc1 [Nicotinuric acid] | 1.35 | 
CC(C)CC1NC(=O)C(C)NC1=O (stereo not given) [Cyclic(ala-leu)] | 1.86 | 
